The subject of assay [1] is Staphylococcus aureus ATCC 29213 cytoplasm pH. Description: Cytoplasmic pH measurement with pHluorin. Format: cell-based. The note with it: pHluorin fluorescence ratio, 5 minutes incubation. Here is the method: Cytoplasm pH was monitored by pH sensitive fluorescent protein over time (s). 2 μM nigericin (Nig) and 2 μM valinomycin (Val) were used as positive control and 1% DMSO was used as negative control. Data represented the mean±S.D. of biological triplicates. Statistical analysis was performed by one-way ANOVA with Dunnett's post-test to calculate p-values adjusted for multiple comparisons with DMSO negative control (*p<0.05; **p<0.01; ***p<0.001).
To construct pHluorinsarA plasmid, pGLsarA plasmid vector was PCR amplified using primers pGL-f (CTGCAGGCATGCAAG; SEQ ID NO: 1) and pGL-r ([…]: SEQ ID NO: 2). […]
A pHlourin standard curve correlating pH and fluorescence ratio was constructed. Briefly, the emission at 510 nm was monitored with excitation wavelengths at 410 nm and 470 nm simultaneously following previously described protocol^18 Overnight culture Staphylococcus aureus ATCC 29213 was sub-cultured 1:100 in fresh CAMH medium and regrown to exponential phase. […] Fluorescence ratio (Excitation wavelength 410 nm/470 nm; emission wavelength 510 nm) was then measured in 1 mL cuvette using Hitachi F-4500 Florescence Spectrometer and plotted against the pH of the buffer. […]

Assay [2] has as its system virulence proteins of Staphylococcus aureus ATCC 29213. Nature of the assay: Secretome analysis of virulence proteins. Format: cell-based. The note with it: 1.56 μM (0.5×MIC), 1.5 hours, supernatant. Here is the method: The red dots represented proteins which were annotated as “Virulence” and “Secrete/extracellular” as subcellular location by UniprotKB. The curve is derived at FDR=0.05 and s0=0.1.
S. aureus ATCC 29213 cells were sub-cultured from an overnight culture to OD595 0.1 and then cultured for 5 hours at 37° C., 250 rpm. Cells were concentrated by centrifugation (3,000×g, 4° C., 15 minutes), washed with 1×PBS and resuspended in CAMH to give OD595 1.5. […] Cells were then concentrated by centrifugation (3,000×g, 15 minutes and 6,000×g, 5 minutes). The supernatant was filtered (0.2 μm) and then concentrated by Amicon Ultra 10 KDa filter. Protein concentration was quantified by Bradford assay.
To quench the reaction, dithiothreitol (12.5 mM; 25° C., 200 rpm) was added for 30 minutes. Endoprotinase LysC was subsequently added (Enzyme: protein ratio 1:200; 25° C., 700 rpm) for 2 hours. The samples were diluted 1:5 by 50 mM ammonium bicarbonate buffer and further digested by trypsin (Enzyme: protein ratio 1:20; 37° C.) for 16 hours. The reaction was quenched by the addition of formic acid until pH reached 2-3. Samples were then submitted to the HKU proteomics and metabolomics core facility for analysis.
The peptides were desalted using C18 StageTips. Eluted peptides were analyzed with nanoelute UPLC was coupled to Bruker TimsTOF Pro mass spectrometer. […]

Consider one compound from patent publication US20240315992A1, “AMINOXY ACID-BASED ANTIBACTERIAL COMPOUNDS AND METHODS THEREOF” (The University of Hong Kong, priority 2023, published 2024).

In the case of `CC(C)C[C@H](ONC(=O)[C@@H](COCc1ccccc1)ONC(=O)c1cc(C(F)(F)F)cc(C(F)(F)F)c1)C(=O)Nc1ccccc1` [Compound 8], the “cytoplasm pH” value in assay [1] was “can acidify Staphylococcus aureus cytoplasm”. The “secretion of the virulence proteins” value in assay [2] was “can reduce the secretion of the virulence proteins”.
